Like-named read-outs stand apart in the source and are kept apart here.
Key:
(α4)3(β2)2 nAChR [1] = target: T1, (α4)3(β2)2 nAChR (Homo sapiens, UniProt P17787+P43681); settings: cited from earlier work
T1 construct: expressed in transfected cells; host or cells: Xenopus laevis oocytes injected with cRNA, 8:1 α4:β2

(α4H116A)3(β2)2 nAChR = target: T2, (α4H116A)3(β2)2 nAChR (Homo sapiens, UniProt P17787+P43681, H142A); assay: Mechanistic (Monod-Wyman-Changeux two-state model) analysis of current responses, (α4H116A)3(β2)2 nAChR; format: cell-based; settings: α4:α4 site; for Kd: read-out: KR,CMPI
T2 construct: expressed in transfected cells; host or cells: Xenopus laevis oocytes injected with cRNA, 8:1 α4:β2
T2 sequence (P43681 27-627 H142A): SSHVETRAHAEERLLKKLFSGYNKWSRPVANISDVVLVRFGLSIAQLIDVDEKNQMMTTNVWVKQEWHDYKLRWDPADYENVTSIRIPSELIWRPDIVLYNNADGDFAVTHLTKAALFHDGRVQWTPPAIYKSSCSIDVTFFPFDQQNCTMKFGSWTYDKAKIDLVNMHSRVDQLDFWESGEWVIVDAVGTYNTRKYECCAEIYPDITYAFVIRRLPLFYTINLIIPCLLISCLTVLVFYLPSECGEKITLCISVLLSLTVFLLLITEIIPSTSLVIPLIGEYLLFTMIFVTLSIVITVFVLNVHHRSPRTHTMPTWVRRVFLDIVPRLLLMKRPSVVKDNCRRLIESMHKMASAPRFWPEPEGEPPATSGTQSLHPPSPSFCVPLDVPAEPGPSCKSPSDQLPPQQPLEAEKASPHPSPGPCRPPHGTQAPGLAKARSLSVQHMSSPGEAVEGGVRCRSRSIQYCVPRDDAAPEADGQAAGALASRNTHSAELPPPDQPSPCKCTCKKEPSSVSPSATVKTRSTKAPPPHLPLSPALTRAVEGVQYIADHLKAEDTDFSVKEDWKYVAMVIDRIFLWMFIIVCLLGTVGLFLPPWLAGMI
T2 sequence (P17787 26-502): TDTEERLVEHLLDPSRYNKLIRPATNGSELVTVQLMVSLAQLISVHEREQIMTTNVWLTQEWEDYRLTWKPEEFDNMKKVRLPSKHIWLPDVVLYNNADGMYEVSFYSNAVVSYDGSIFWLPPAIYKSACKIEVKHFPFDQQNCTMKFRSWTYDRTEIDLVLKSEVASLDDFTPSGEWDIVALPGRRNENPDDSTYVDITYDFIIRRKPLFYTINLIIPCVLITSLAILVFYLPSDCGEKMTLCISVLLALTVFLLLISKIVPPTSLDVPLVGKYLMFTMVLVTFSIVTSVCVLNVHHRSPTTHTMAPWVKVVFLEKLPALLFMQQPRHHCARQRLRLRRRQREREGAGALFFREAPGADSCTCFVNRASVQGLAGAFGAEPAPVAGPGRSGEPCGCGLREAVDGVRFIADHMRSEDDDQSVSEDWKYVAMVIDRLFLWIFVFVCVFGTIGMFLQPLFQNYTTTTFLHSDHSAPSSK
Description: Further analysis of electrophysiological data was conducted in the framework of the two-state concerted transition model, adapted from the MWC cyclic model originally used to describe enzyme function ([31], [32], [33]). The raw peak amplitudes of current responses were converted to units of probability of being in the active state (PA).
The numbers of α4:β2 and α4:α4 binding sites (Nα4:β2 and Nα4:α4) were constrained to 2 and 1, respectively.
The concentration-response curve for TC-2559 was fitted to the following equation:(3) PA=1/1+L[1+[TC-2559]/KR,TC-2559,α4:β2/1+[TC-2559]/(KR,TC-2559,α4:β2cTC-2559,α4:β2)]^Nα4:β2
The concentration-response data were analyzed using Equation 3, with the value of L modified to reflect receptor activation by TC-2559, and the affinity and efficacy terms in the equation reflecting the values for CMPI. The number of binding sites for CMPI in Equation 3 was constrained to 1.
Curve fitting was done using Origin 2020 (OriginLab Corp). The results are reported as best-fit parameter ±SD of the fit. All data are included in the analysis.

(α4)3(β2)2 nAChR [2] = target: T1, (α4)3(β2)2 nAChR; assay: Two-electrode voltage-clamp whole-cell currents, Xenopus oocytes expressing WT (α4)3(β2)2 nAChR; format: cell-based
Description: Oocytes-positive female Xenopus laevis were purchased from NASCO, and all procedures were performed according to an animal use protocol approved by the Institutional Animals Care and Use Committee of The University of Texas Health Science Center at Tyler. Ovarian lobules were surgically harvested, treated with collagenase type 2, and Stage V and VI oocytes were visually selected and maintained at 18 °C in modified ND96-gentamicin buffer (96 mM NaCl, 2 mM KCl, 1.8 mM CaCl2, 1 mM MgCl2, 5 mM Hepes, and 50 μg/ml gentamicin, pH 7.6).
pSP64 Poly(A) plasmids with cDNA encoding for human α4 or β2 nAChR subunit were used to prepare cRNA transcripts suitable for oocyte expression. The plasmids were linearized with AseI (hα4) and PvuII (hβ2), then cRNA transcripts were prepared in vitro using mMESSAGE mMACHINE high yield-capped RNA transcription kits (Ambion, Thermo Fisher Scientific), purified on NucAway Spin column (Invitrogen, Thermo Fisher Scientific), and stored at −80 °C until used. Point mutations within the plasmid encoding the α4 nAChR subunit were introduced using QuikChange II Site-Directed Mutagenesis Kit (Agilent Technologies), as described previously ([28]). To generate amino acid substitutions (K64T, E66I, H116V, H116L, and H116A), two custom-designed complementary oligos containing the desired mutation were used (Integrated DNA Technologies). The forward primers were as the following with the codon for mutated amino acids are underlined and nucleotide(s) changes are bolded and italicized:
The oocytes were injected with 10 to 50 ng of a cRNA mix containing α4 (WT or mutant) and β2 RNAs at ratios of 8:1(α4:β) or 1:8 (α4:β2) to bias expression toward (α4)3(β2)2 or (α4)2(β2)3 nAChRs, respectively. The injection of oocytes with RNAs mixture containing four folds or higher α4 RNA than β2 RNA have been established to express receptor population that is made up of three α4 and two β2 subunits ([9], [12], [28], [43], [44], [45]).
24 to 72 h after cRNA injection, Xenopus oocytes were placed in a custom-made recording chamber that is connected to an eight-channel automated perfusion system (Warner Instruments) and perfused with recording buffer (100 mM NaCl, 2 mM KCl, 1 mM CaCl2, 0.8 mM MgCl2, 1 mM EGTA, and 10 mM Hepes, pH 7.5). Unless otherwise specified in figure legends, each recording run included several drug applications (10 s of an agonist with or without CMPI or NS9283) separated by 3 to 4 min buffer wash intervals. Between recording runs, the oocytes were washed with recording buffer for at last 5 min. The oocytes were voltage-clamped at −50 mV using Oocyte Clamp OC-725B (Warner Instruments). The currents were digitized using Digidata 1550A (Axon Instruments, Molecular Devices), and the peak currents were quantified using pCLAMP 10 (Axon Instruments), then normalized and analyzed using Excel 2010 (Microsoft) and SigmaPlot 11.0 (Systat Software). For NS9283 and CMPI potentiation of agonist-induced responses, the peak currents were normalized to current elicited by agonist alone applied within the same recording run. For the effect of coapplication of 1 μM NS9283 or CMPI on agonist concentration-response curve, the peak currents were normalized to current elicited by saturating concentration of agonist applied within the same recording run. […] I0 = 100 for NS9283 and CMPI potentiation of agonist-induced responses and I0 = 0 for agonist concentration-response experiments. The best-fit values for Imax and EC50 ± SD are presented.

[3] = background of activity elicited by ACh
[4] = background of activity elicited by TC-2559

T1 sequence (P43681 27-627): as the sequence (P43681 27-627 H142A) above, with A116H counted along it
T1 sequence (P17787 26-502): as the sequence (P17787 26-502) above

Cc1c(-c2cc(-c3ccccc3Cl)no2)cnn1C1CCNCC1 [CMPI, 3-(2-chlorophenyl)-5-(5-methyl-1-(piperidin-4-yl)-1H-pyrrazol-4-yl)isoxazole]
left-shift of the ACh concentration-response curve ((α4)3(β2)2 nAChR [1]; CMPI at 1 μM): ~100 fold
direct activation of the α4β2 receptor ((α4)3(β2)2 nAChR [1]): very weak direct activator
current responses to EC10 (10 μM) ACh with coapplied CMPI, % of control ((α4)3(β2)2 nAChR [1]; maximal potentiation, 10 μM ACh): 386 ± 15%
EC50 ((α4)3(β2)2 nAChR [1]; potentiation of 10 μM ACh response): 180 ± 30 nM
cCMPI ((α4H116A)3(β2)2 nAChR; [3]): 0.082 ± 0.007
Kd ((α4H116A)3(β2)2 nAChR; [3]): 440 ± 120 nM
cCMPI ((α4H116A)3(β2)2 nAChR; [4]): 0.099 ± 0.009
Kd ((α4H116A)3(β2)2 nAChR; [4]): 230 ± 80 nM
maximal potentiation ((α4)3(β2)2 nAChR [2]; 1 μM TC-2559): 880 ± 13%
maximal potentiation equivalent, % of current elicited by 1 mM ACh ((α4)3(β2)2 nAChR [2]; 1 μM TC-2559 + CMPI): 44.6%
maximal potentiation, % of control ((α4)3(β2)2 nAChR [2]; 1 μM cytisine): 716 ± 59%
effect on responses to agonists at subsaturating concentrations ((α4)3(β2)2 nAChR [2]; 1 μM modulator, ACh, nicotine, cytisine, TC-2559, p < 0.001): potentiated
effect on responses to saturating concentrations of the tested agonists ((α4)3(β2)2 nAChR [2]; 1 μM modulator, except for TC-2559): did not potentiate
maximal potentiation, % of control ((α4)3(β2)2 nAChR [2]; 1 μM nicotine): 618 ± 34%
maximal potentiation ((α4)3(β2)2 nAChR [2]; 10 μM TC-2559): 634 ± 94%
maximal potentiation equivalent, % of current elicited by 1 mM ACh ((α4)3(β2)2 nAChR [2]; 10 μM TC-2559 + CMPI): 48.4%
potentiation fold (Ave ± SD), agonist + 1 μM modulator / agonist alone ((α4)3(β2)2 nAChR [2]; ACh (1 mM), 1 μM modulator): 0.81 ± 0.15
potentiation fold (Ave ± SD), agonist + 1 μM modulator / agonist alone ((α4)3(β2)2 nAChR [2]; TC 2559 (30 μM), 1 μM modulator): 6.41 ± 2.15
EC50 ((α4)3(β2)2 nAChR [2]; receptors activated by 1 μM cytisine, read-out: EC50 for potentiation): 340 ± 80 nM
EC50 ((α4)3(β2)2 nAChR [2]; receptors activated by 1 μM nicotine, read-out: EC50 for potentiation): 270 ± 40 nM
EC50 ((α4)3(β2)2 nAChR [2]; responses induced by 1 μM TC-2559, read-out: potentiation EC50): 110 ± 10 nM
EC50 ((α4)3(β2)2 nAChR [2]; responses induced by 10 μM TC-2559, read-out: potentiation EC50): 90 ± 40 nM

Source: publication PMC8715118, “Assessing potentiation of the (α4)3(β2)2 nicotinic acetylcholine receptor by the allosteric agonist CMPI” (The Journal of Biological Chemistry, 2021)
